Data on 7 compounds can be found in patent publication US5235061A, “Fungicidal (1H-1,2,4-triazolyl)disilaalkanes” (priority 1991, dated 1993).

Structures are written as SMILES.

What all share (experiment): In vitro percent disease control (radii of spore growth on agar)
Holding throughout (format): cell-based

One series concerns Pyricalaria oryzae. To be noted: for inhibition of growth at 50 ppm: read-out: % controlled, Py. or., 50 ppm; for inhibition of growth at 100 ppm: read-out: % controlled, Py. or., 100 ppm. On the procedure: (§1) The compounds of this invention were dissolved respectively in acetone in an amount equal to 10% of the final volume and then in purified water at the concentration of 100 ppm and 50 ppm.
(§2) Each of the solution was mixed with potato-sucrose-agar medium in a 6" petri dish and one of the fungi was spotted at the center of the dish. The dish was incubated in growth room for several days. The percent disease control was derived from the radii of spore growth. The screening tests in vitro condition are well-known to those skilled in the art.
(§3) The following fungi were used for the screening.
6) Py.or.; Pyricalaria oryzae

The subject of the next series is Phytophthora capsisi. The settings on record: Phytophthora, read-out: % controlled, Phy ca. On the procedure:
as §1, §2, §3
2) Phy. ca.; Phytophthora capsisi

Series [1] concerns Botryosphaeria dothidea Macrophoma sp. To be noted: Botryosphaeria dothidea, read-out: % controlled, Bo.do (Ma.). On the procedure:
as §1, §2, §3
4) Bo.do(Ma); Botryosphaeria dothidea Macrophoma sp.

The subject of a further series is Rhizoctonia solani. The settings on record: Rhizoctonia solani, read-out: % controlled, Rhy. so. On the procedure: as §1, §2, §3
7) Rhi.so.; Rhizoctonia solani

The test system of the next series is Rhizopus sp. The settings on record: Rhizopus, read-out: % controlled, Rhi. sp. On the procedure: as §1, §2, §3
The subject of a further series is Alternaria mali. To be noted: Alternaria mali, read-out: % controlled, Al. The method, then: as §1, §2, §3
Another series concerns Botry tris cinerea. To be noted: read-out: % controlled, Bo ci. The method, then:
as §1, §2, §3
10) Bo.ci.; Botry tris cinerea

The subject of a further series is Fusarium moniliforme. On the procedure: as §1, §2, §3
8) Fu.mo.; Fusarium moniliforme

In another series the test system is Physalospora baccae. The settings on record: read-out: % controlled, Phy ba. On the procedure:
as §1, §2, §3
3) Phy. ba.; Physalospora baccae

The test system of a further series is Glomerella cingulata. The settings on record: Colletotrichum gloeosporioides, read-out: % controlled, Glo. On the procedure:
as §1, §2, §3
5) Glo.; Glomerella cingulata

Take `C[Si](C)(C[Si](Cn1cncn1)(c1ccc(F)cc1)c1ccc(F)cc1)c1ccc(-c2ccccc2)cc1` [2,2-bis(4-fluorophenyl)-4-(4-phenylphenyl)-4-methyl-2,4-disila-1-(1H-1,2,4-triazol-1-yl)pentane]: the inhibition of growth at 50 ppm in the series on Pyricalaria oryzae was 54%; with Phytophthora capsisi, 6%; in series [1] it was 47%; with Rhizoctonia solani, 65%; in the series with Rhizopus sp., 29%; in the series with Alternaria mali, 46%. For the same compound, the figures for the inhibition of growth at 50 ppm with Botry tris cinerea, in the series on Physalospora baccae and in the series with Glomerella cingulata were 18%, 28% and 71%, respectively. The inhibition of growth at 100 ppm amounted to 57% in the series with Pyricalaria oryzae; 9% with Phytophthora capsisi; 49% in series [1]; 67% in the series with Rhizoctonia solani; 29% in the series with Rhizopus sp.; 46% in the series on Alternaria mali. Also, the inhibition of growth at 100 ppm in the series with Botry tris cinerea was 23%; with Physalospora baccae, 32%; with Glomerella cingulata, 73%. Also, the “% controlled, Fu. mo.” value in the series on Fusarium moniliforme (50 ppm) and in the series with Fusarium moniliforme (100 ppm) was 41% throughout.

Regarding `C[Si](C)(C[Si](C)(Cn1cncn1)c1ccc(Cl)cc1)c1ccc(Cl)cc1` (centres unmarked) [2,4-bis(4-chlorophenyl)-2,4-dimethyl-2,4-disila-1-(1H-1,2,4-triazol-1-yl)pentane], the inhibition of growth at 50 ppm in the series on Pyricalaria oryzae came to 27%; in the series on Phytophthora capsisi, 16%; in series [1], 80%; with Rhizoctonia solani, 28%; in the series on Rhizopus sp., 31%; in the series with Alternaria mali, 54%. The inhibition of growth at 50 ppm in the series on Botry tris cinerea came to 33%; in the series on Physalospora baccae it was 34%; with Glomerella cingulata, 70%. Moreover, the inhibition of growth at 100 ppm worked out at 27% with Pyricalaria oryzae; 22% in the series on Phytophthora capsisi; 82% in series [1]; 42% in the series on Rhizoctonia solani; 40% in the series on Rhizopus sp.; 69% with Alternaria mali. Further, the values for the inhibition of growth at 100 ppm with Botry tris cinerea, in the series on Physalospora baccae and in the series on Glomerella cingulata were 41%, 37% and 76%, respectively. Further, the “% controlled, Fu. mo.” value in the series on Fusarium moniliforme (50 ppm) is recorded as 48%; in the series with Fusarium moniliforme (100 ppm) it was 57%.

Turning to `COc1ccc([Si](Cn2cncn2)(C[Si](C)(C)c2ccc(Cl)cc2)c2ccc(Cl)cc2)cc1` (centres unmarked) [2,4-bis(4-chlorophenyl)-2-(4-methoxyphenyl)-4-methyl-2,4-disila-1-(1H-1,2,4-triazol-1-yl)pentane], the inhibition of growth at 50 ppm in the series with Pyricalaria oryzae is 100%; with Phytophthora capsisi, 45%; in series [1] it was 75%; in the series with Rhizoctonia solani, 90%; in the series on Rhizopus sp. it was 46%; in the series with Alternaria mali it was 74%. In addition, the inhibition of growth at 50 ppm in the series with Botry tris cinerea was found to be 40%; in the series with Physalospora baccae, 76%; in the series on Glomerella cingulata it was 76%. In addition, the inhibition of growth at 100 ppm in the series with Pyricalaria oryzae is 100%; in the series with Phytophthora capsisi, 65%; in series [1], 79%; in the series on Rhizoctonia solani it was 92%; in the series on Rhizopus sp., 50%; in the series with Alternaria mali, 89%. Further, the inhibition of growth at 100 ppm with Botry tris cinerea is 43%; in the series on Physalospora baccae, 79%; in the series with Glomerella cingulata, 87%. Also, the “% controlled, Fu. mo.” value with Fusarium moniliforme (50 ppm) was found to be 42%; in the series on Fusarium moniliforme (100 ppm), 48%.

Consider `C[Si](C)(C[Si](C)(Cn1cncn1)c1ccc(F)cc1)c1ccc(F)cc1` (centres unmarked) [2,4-bis(4-fluorophenyl)-2,4-dimethyl,2,4-disila-1-(1H-1,2,4-triazol-1-yl)pentane], for which the inhibition of growth at 50 ppm was determined as 50% in the series on Pyricalaria oryzae; 3% in the series with Phytophthora capsisi; 40% in [1]; 57% in the series on Rhizoctonia solani; 24% in the series with Rhizopus sp.; 38% with Alternaria mali. The inhibition of growth at 50 ppm in the series with Botry tris cinerea stood at 0%; with Physalospora baccae, 22%; in the series on Glomerella cingulata, 72%. Further, the inhibition of growth at 100 ppm in the series with Pyricalaria oryzae came out at 54%; in the series with Phytophthora capsisi, 6%; in series [1], 43%; with Rhizoctonia solani, 60%; in the series on Rhizopus sp., 26%; with Alternaria mali it was 44%. Besides, the inhibition of growth at 100 ppm was 10% in the series with Botry tris cinerea, 22% in the series on Physalospora baccae and 73% in the series on Glomerella cingulata. The “% controlled, Fu. mo.” value with Fusarium moniliforme (50 ppm) was determined as 35%; in the series on Fusarium moniliforme (100 ppm), 38%.

On to `CCOc1ccc([Si](C)(C)C[Si](Cn2cncn2)(c2ccc(F)cc2)c2ccc(Cl)cc2)cc1` (centres unmarked) [2-(4-chlorophenyl)-4-(4-ethoxyphenyl)-2-(4-fluorophenyl)-4-methyl-2,4-disila-1-(1H-1,2,4-triazol-1-yl)pentane], for which the inhibition of growth at 50 ppm with Pyricalaria oryzae was found to be 100%; in the series with Phytophthora capsisi it was 23%; in [1], 74%; in the series with Rhizoctonia solani it was 96%; in the series on Rhizopus sp., 50%; with Alternaria mali, 75%. Further, the inhibition of growth at 50 ppm with Botry tris cinerea was found to be 90%; in the series on Physalospora baccae, 69%; in the series on Glomerella cingulata, 87%. In addition, the inhibition of growth at 100 ppm with Pyricalaria oryzae came to 100%; in the series on Phytophthora capsisi, 25%; in series [1], 79%; in the series on Rhizoctonia solani it was 96%; in the series with Rhizopus sp. it was 50%; with Alternaria mali it was 79%. The inhibition of growth at 100 ppm worked out at 90% with Botry tris cinerea, 69% in the series on Physalospora baccae and 87% in the series on Glomerella cingulata. Moreover, the “% controlled, Fu. mo.” value in the series on Fusarium moniliforme (50 ppm) and in the series on Fusarium moniliforme (100 ppm) was 46% each time.

Take `C[Si](C)(C[Si](C)(Cn1cncn1)c1ccc(Cl)cc1)c1ccc(F)cc1` (centres unmarked) [2-(4-chlorophenyl)-4-(4-fluorophenyl)-2,4-dimethyl-2,4-disila-1-(1H-1,2,4-triazol-1-yl)pentane]: the inhibition of growth at 50 ppm with Pyricalaria oryzae is 46%; in the series on Phytophthora capsisi, 0%; in [1], 43%; in the series with Rhizoctonia solani, 31%; with Rhizopus sp., 18%; in the series with Alternaria mali, 38%. Moreover, the inhibition of growth at 50 ppm with Botry tris cinerea stood at 13%; with Physalospora baccae, 20%; in the series on Glomerella cingulata, 67%. Moreover, the inhibition of growth at 100 ppm came out at 48% in the series with Pyricalaria oryzae; 0% in the series on Phytophthora capsisi; 43% in series [1]; 50% with Rhizoctonia solani; 20% with Rhizopus sp.; 38% in the series with Alternaria mali. Moreover, the figures for the inhibition of growth at 100 ppm in the series with Botry tris cinerea, in the series with Physalospora baccae and with Glomerella cingulata were 18%, 20% and 73%, respectively. The “% controlled, Fu. mo.” value in the series on Fusarium moniliforme (50 ppm) came out at 34%; with Fusarium moniliforme (100 ppm) it was 58%.

Regarding `CCOc1ccc([Si](C)(Cn2cncn2)C[Si](C)(C)c2ccc(F)cc2)cc1` (centres unmarked) [2-(4-ethoxyphenyl)-4-(4-fluorophenyl)-2,4-dimethyl-2,4-disila-1-(1H-1,2,4-triazol-1-yl)pentane], the inhibition of growth at 50 ppm with Pyricalaria oryzae is 64%; in the series with Phytophthora capsisi it was 9%; in [1], 40%; with Rhizoctonia solani it was 74%; in the series with Rhizopus sp., 29%; in the series on Alternaria mali it was 38%. Moreover, the inhibition of growth at 50 ppm is 0% in the series with Botry tris cinerea, 28% in the series with Physalospora baccae and 67% with Glomerella cingulata. In addition, the inhibition of growth at 100 ppm in the series on Pyricalaria oryzae was 64%; with Phytophthora capsisi, 9%; in [1], 46%; in the series on Rhizoctonia solani, 89%; in the series with Rhizopus sp., 32%; in the series with Alternaria mali, 44%. Also, the inhibition of growth at 100 ppm in the series with Botry tris cinerea was 0%; in the series on Physalospora baccae it was 28%; in the series on Glomerella cingulata, 69%. Moreover, the “% controlled, Fu. mo.” value with Fusarium moniliforme (50 ppm) amounted to 41%; in the series on Fusarium moniliforme (100 ppm), 45%.
